Patent US11040066B2, “Topical composition for use in the treatment of burns” (Safeguard Medical Holdco, LLC, priority 2017, dated 2021)

Assay: Gamma radiation resistance of gel formulas (Rounds 1-5)
Assay type: physicochemical
Settings: Round 1; summary in words
Text: Following several failed attempts to formulate a composition with suitable viscosity and other properties to function as a burn treatment, the Inventors obtained stable compositions which were sent for testing to assess stability under gamma radiation.
OVERVIEW: To incorporate: Polyaminopropyl biguanide (INCI name); Chemical name: Polyhexamethylene Biguanide Hydrochloride (PHMB) and later Oriel sea mineral complex into a gel formula that can withstand the impact of gamma radiation sterilisation.
5 rounds of formulas were sent out for gamma radiations as outlined below.
Round 1 Summary: Started with our current BD (Burn Dressing) Gel with hyaluronic acid (HA) formula to which various ingredients were added.
Carbopol is the thickening agent used in BD Gel with HA, the only experiment in round 1 to which PHMB was added.
Round 2 Summary: Since PHMB was incompatible with Carbopol, new formulas containing various other thickeners were tried. Since propylene glycol, a humectant helped, another humectant (propanediol) was tried. For all the experimental batches made, only the stable formulas were sent out for gamma radiation. Only some of round 2 formulas contain PHMB (20% solution) @0.2% […]
In round 5, the final formula was determined from a selection of which were sent out for gamma radiation with acceptable results. […]

Change following gamma radiation: little or no change
SMILES: CC(O)CO (stereo not shown) [propylene glycol, 1,2-Propanediol]
